Assay results from patent publication US20180296523A1, “USE OF POLYMETHOXYLATED FLAVONES TO AMELIORATE CIRCADIAN RHYTHM DISORDERS” (THE BOARD OF REGENTS OF THE UNIVERSITY OF TEXAS SY, priority 2017, published 2018).
“Also recorded” adds a separate entry of the source.

Legend:
[1] = system: Clock^Δ19/+ PER2::Luc reporter cells; assay: High-throughput chemical screen, PER2::Luc reporter rhythm; assay type: cell-based, mouse; details: for PER2::Luc reporter rhythm / circadian amplitude: Clock^Δ19/+ cells, forskolin pre-stimulated
Protocol: Specifically, the chemical screen for circadian clock modulators was conducted at the Chemical Genomics Core facility at the University of Texas Health Science Center at Houston (UTHSC-H). The in-house chemical library screened consisted of compounds from the National Institutes of Health (NIH) Clinical Collection, National Cancer Institute collection, and Microsource Spectrum Collection. Screening was conducted largely on the basis of the protocol previously described (Chen et al., 2012). […] Upon confluency, cells were incubated with 5 μM forskolin for 1-2 hr, followed by the addition of chemical compounds to the plates with robotic arms (Beckman), and then subjected to continuous monitoring over several days in a temperature-controlled EnVision microplate reader (Perkin Elmer). Data analysis was carried out by using the MultiCycle software (Actimetrics) for measurement of period, phase, and amplitude. The chemical screen for circadian clock modulators was conducted at the Chemical Genomics Core facility at the UTHSC-H. The in-house chemical library screened consists of compounds from NIH Clinical Collection, NCI collection and Microsource Spectrum Collection. The screening was conducted largely based on the protocol previously described (Chen et al., 2012). […] Cells were then incubated with 5 μM forskolin for 1-2 h followed by the addition of chemical compounds to the plates with robotic arms (Beckman), and then subjected to continuous monitoring over several days in a temperature-controlled EnVision microplate reader (Perkin Elmer). Data analysis was carried out by using the MultiCycle software (Actimetrics) for measurement of period, phase, and amplitude. […] Tissue explant experiments were conducted as described previously (Chen et al., 2012).

[2] = system: PER2::LucSV reporter fibroblast cells; assay: Dose response validation of reporter rhythm in PER2::LucSV cells; assay type: cell-based, mouse
Protocol: The chemical screen for circadian clock modulators was conducted at the Chemical Genomics Core facility at the UTHSC-H. The in-house chemical library screened consists of compounds from NIH Clinical Collection, NCI collection and Microsource Spectrum Collection. The screening was conducted largely based on the protocol previously described (Chen et al., 2012). […] Cells were then incubated with 5 μM forskolin for 1-2 h followed by the addition of chemical compounds to the plates with robotic arms (Beckman), and then subjected to continuous monitoring over several days in a temperature-controlled EnVision microplate reader (Perkin Elmer). Data analysis was carried out by using the MultiCycle software (Actimetrics) for measurement of period, phase, and amplitude. […] Tissue explant experiments were conducted as described previously (Chen et al., 2012).

RORγ-LBD = target: T1, RORγ-LBD (Homo sapiens, UniProt P51449); assay: Radioligand receptor binding assay with 25-[3H]-OHC, RORγ-LBD; details: in the presence of 4.5 nM 25-[3H]-OHC
T1 sequence (P51449 269-508 limits assumed): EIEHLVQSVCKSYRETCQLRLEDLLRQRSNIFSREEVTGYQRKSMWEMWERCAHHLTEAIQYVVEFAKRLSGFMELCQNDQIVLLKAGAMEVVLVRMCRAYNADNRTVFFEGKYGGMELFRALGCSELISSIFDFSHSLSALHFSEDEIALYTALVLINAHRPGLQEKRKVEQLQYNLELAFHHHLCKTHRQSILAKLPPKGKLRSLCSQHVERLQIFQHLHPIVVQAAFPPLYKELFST
Protocol: Ligand binding was determined by filter binding assays to calculate the Kd value. […] Ki was determined using the Cheng-Prusoff equation.

GAL4 DBD-RORα LBD = target: T2, GAL4 DBD-RORα LBD (Mus musculus, UniProt P51448); assay: Mammalian one-hybrid reporter assay in HEK293T cells, GAL4-RORα; assay type: cell-based; details: ligand interaction reduces transcriptional activity
T2 construct: mouse RORα-LBD (aa 261-523); expressed in transfected cells; host or cells: HEK293T
T2 sequence (P51448 261-523): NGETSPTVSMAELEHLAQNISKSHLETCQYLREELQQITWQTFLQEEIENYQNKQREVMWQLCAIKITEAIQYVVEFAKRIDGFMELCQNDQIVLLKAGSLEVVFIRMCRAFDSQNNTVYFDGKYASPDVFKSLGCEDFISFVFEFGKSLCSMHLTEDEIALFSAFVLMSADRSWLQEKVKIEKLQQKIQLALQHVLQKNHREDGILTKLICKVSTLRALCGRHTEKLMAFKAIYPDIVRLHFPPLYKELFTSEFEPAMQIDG
Excerpt: (§1) Plasmids containing the retinoic acid-related orphan receptor response element (RORE) from mouse Bmal1 promoter, pcDNA3.1B-G4DBD-RORαLBD and pcDNA3.1BG4DBD-RORγLBD were constructed in our lab. Specifically, the 1960 bp sequences (−1830/+130) of the mouse Bmal1 promoter harboring either WT ([…] (SEQ ID NO:1) and […] (SEQ ID NO:2)) or mutant ([…] (SEQ ID NO:3)) RORE were PCR amplified from mouse genomic DNA and cloned into pGL3-promoter luciferase vector. For expression of RORα or RORγ-GAL4 protein, mouse RORα-LBD (aa 261-523) or RORγ-LBD (aa 250-516) were PCR amplified from mouse genomic DNA and cloned into a GAL4-DBD-containing vector, pcDNA3.1B.
(§2) For mammalian one-hybrid assays, HEK293T cells were cotransfected with pcDNA3.1B-G4DBD-RORα/γLBD, pGL4.31 and TK promoter Renilla luciferase construct (tK.pRL). To investigate the regulation of the Bmal1 reporter, Hepa1-6 cells were cotransfected with Bmal1-WT or mutant RORE reporter plasmids, RORα, RORγ or Rev-erbα expression construct along with tK.pRL. Mouse and human siRNA targeting RORα and RORγ were purchased from Santa Cruz. Transfection was performed by Lipfectamine 2000 reagent (Invitrogen) Twenty-four hours after transfection, the cells were treated with vehicle or NOB. Lysates were collected 24 h after treatment, and firefly and Renilla luciferase activities were measured by using a Dual-Luciferase Reporter System (Promega).
(§3) For radio-ligand receptor binding assays, previously described protocols with minor modifications (Kumar et al., 2010; Wang et al., 2010b) were adopted.

GAL4 DBD-RORγ LBD = target: T3, GAL4 DBD-RORγ LBD (Mus musculus, UniProt P51450); assay: Mammalian one-hybrid reporter assay in HEK293T cells, GAL4-RORγ; assay type: cell-based; details: ligand interaction reduces transcriptional activity
T3 construct: RORγ-LBD (aa 250-516); expressed in transfected cells; host or cells: HEK293T
T3 sequence (P51450 250-516): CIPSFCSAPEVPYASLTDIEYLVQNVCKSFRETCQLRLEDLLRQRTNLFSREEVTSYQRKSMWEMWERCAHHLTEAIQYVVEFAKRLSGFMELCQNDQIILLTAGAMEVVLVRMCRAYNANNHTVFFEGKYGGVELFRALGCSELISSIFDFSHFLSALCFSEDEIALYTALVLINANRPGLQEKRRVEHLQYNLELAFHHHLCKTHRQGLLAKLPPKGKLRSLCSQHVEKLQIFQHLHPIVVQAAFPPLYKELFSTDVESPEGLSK
Excerpt: as §1, §2, §3

[3] = system: Bmal1 promoter with RORα/γ knockdown; assay: Bmal1 promoter-driven luciferase reporter in U2OS cells; assay type: cell-based

Structure (SMILES)	PER2::Luc reporter rhythm / circadian amplitude [1]	reporter luminescence ([1]; PER2::LUC Clock^Δ19/+ reporter cells)	reporter luminescence ([2]; PER2::LucSV reporter cells)	competitive binding to RORγ-LBD (RORγ-LBD)	activity on GAL4-RORα chimeric receptor (GAL4 DBD-RORα LBD)	activity on GAL4-RORγ chimeric receptor (GAL4 DBD-RORγ LBD)	PER2::Luc reporter rhythm / circadian amplitude ([1]; listed as Nobiletin)	amplitude of PER2::LucSV reporter rhythm [2]	period of PER2::LucSV reporter rhythm [2]	EC50 ([2]; Mus musculus, Fibroblast, PER2::LucSV reporter rhythm, read-out: estimated half maximal effective concentration) [µM]	induction of Bmal1 reporter after knockdown of RORα/γ by siRNAs [3]
C[C@@H]1O[C@@H](O[C@H]2[C@H](Oc3cc(O)c4c(c3)O[C@H](c3ccc(O)cc3)CC4=O)O[C@H](CO)[C@@H](O)[C@@H]2O)[C@H](O)[C@H](O)[C@H]1O [naringin, reference compound]	failed to enhance cellular circadian rhythms	did not enhance the reporter luminescence	did not enhance the reporter luminescence	markedly diminished binding	no activities	no activities	–	–	–	–	–
COc1ccc(-c2cc(=O)c3c(OC)c(OC)c(OC)c(OC)c3o2)cc1OC [nobiletin]	enhance the reporter rhythm	–	–	direct binding; also recorded: robust competitive binding	robust activities	robust activities	significantly enhance circadian amplitude	robustly enhanced the amplitude	lengthened the period in a dose-dependent manner	< 5	abrogated the nobiletin-mediated induction
